# Reference: paper PMC8225628, “Bispecific repurposed medicines targeting the viral and immunological arms of COVID-19” (Scientific Reports, 2021)
# pIC50: −log10 of the molar value. Where two headings read alike, the source gives them in different places.
# What was measured:
# SARS-CoV-2 M^pro = SARS-CoV-2 M^pro (Severe acute respiratory syndrome coronavirus 2, UniProt P0DTD1); assay: biochemical; details: for inhibition at 10 µM: read-out: M^pro % inhibition at 10 µM
# SARS-CoV-2 PL^pro = SARS-CoV-2 PL^pro (Severe acute respiratory syndrome coronavirus 2, UniProt P0DTD1); assay: biochemical; details: for inhibition at 10 µM: read-out: PL^pro % inhibition at 10 µM
# HUH7 cells = details: human, 4 days
# SARS-CoV-2 = assay: Antiviral assay, inhibition of SARS-CoV-2 cytopathic effect in HUH7_mCherry cells; details: HUH7 cells, at 10 µM, dose refreshed daily
# M^pro = M^pro (Severe acute respiratory syndrome coronavirus 2, UniProt P0DTD1); assay: M^pro SPR assay; assay type: binding
# [1] = design: method as in PMID 32726803; details: cited from earlier work
# PL^pro = tested on: PL^pro; design: method as in PMID 32726803; details: read-out: Biochemical IC50; cited from earlier work
# [2] = design: method as in PMID 32726803; details: cited from earlier work; remark: listed apart in the source
# [3] = design: method as in PMID 32726803; details: read-out: FFU IC50; cited from earlier work
# [4] = ReFRAME hits, >5e-6 = not potent enough to determine an IC50, read-out: M^pro IC50
# [5] = ReFRAME hits, >5e-6 = not potent enough to determine an IC50, read-out: PL^pro IC50
molecule,measurement,setting,value
"CO[C@H]1O[C@H](COS(=O)(=O)[O-])[C@@H](O[C@@H]2O[C@@H](C(=O)[O-])[C@@H](O[C@H]3O[C@H](COS(=O)(=O)[O-])[C@@H](O[C@@H]4O[C@H](C(=O)[O-])[C@@H](O[C@H]5O[C@H](COS(=O)(=O)[O-])[C@@H](O)[C@H](O)[C@H]5NS(=O)(=O)[O-])[C@H](O)[C@H]4O)[C@H](OS(=O)(=O)[O-])[C@H]3NS(=O)(=O)[O-])[C@H](O)[C@H]2OS(=O)(=O)[O-])[C@H](O)[C@H]1NS(=O)(=O)[O-].[Na+].[Na+].[Na+].[Na+].[Na+].[Na+].[Na+].[Na+].[Na+].[Na+] [fondaparinux (sodium), reference compound]",M^pro % inhibition at 10 µM,SARS-CoV-2 M^pro; ReFRAME hits,80%
same,pIC50,SARS-CoV-2 M^pro; [4],5.70
same,PL^pro % inhibition at 10 µM,SARS-CoV-2 PL^pro; ReFRAME hits,23%
same,pIC50,SARS-CoV-2 PL^pro; [5],< 5.30
Cc1cc(O)c2c(=O)c3c(O)cc(O)c4c5c(O)cc(O)c6c(=O)c7c(O)cc(C)c8c1c2c(c34)c(c78)c65 [hypericin],inhibition at 10 µM,SARS-CoV-2 PL^pro; ReFRAME hits,12%
same,pIC50,SARS-CoV-2 PL^pro; read-out: PL^pro IC50,< 5.30
O=C(O)c1cccc(C[C@@H]2COc3ccc(OCc4nc5cc(F)ccc5s4)cc3[C@@H]2O)c1 [(+)-CP-85958],M^pro % inhibition at 10 µM,SARS-CoV-2 M^pro; ReFRAME hits,70%
same,pIC50,SARS-CoV-2 M^pro; [4],5.70
same,PL^pro % inhibition at 10 µM,SARS-CoV-2 PL^pro; ReFRAME hits,17%
same,pIC50,SARS-CoV-2 PL^pro; [5],< 5.30
"CCOc1cc2ncc(C#N)c(Nc3ccc(F)c(Cl)c3)c2cc1NC(=O)/C=C/CN(C)C [Compound 10, Pelitinib, reference compound]",Inhibition of M^pro (in words),SARS-CoV-2 M^pro,not determined to display significant biochemical inhibition
same,IC50,"SARS-CoV-2 PL^pro; SARS-CoV-2 PL^pro, range in brackets, read-out: IC50 (µM) (range)",> 100 µM
SENNOSIDES [reference compound],M^pro % inhibition at 10 µM,SARS-CoV-2 M^pro; ReFRAME hits,92%
same,pIC50,SARS-CoV-2 M^pro; [4],6.15
same,PL^pro % inhibition at 10 µM,SARS-CoV-2 PL^pro; ReFRAME hits,72%
same,pIC50,SARS-CoV-2 PL^pro; [5],< 5.30
"CCOC1OC(=O)CC1NC(=O)C1CCCN1C(=O)C(NC(=O)c1ccc(N)c(Cl)c1)C(C)(C)C (stereo not drawn) [Compound 7, belnecasan, reference compound]",Inhibition of M^pro (in words),SARS-CoV-2 M^pro,did not substantially inhibit
"CN1CCCN=C1/C=C/c1cccc(O)c1.O=C(O)c1cc2ccccc2c(Cc2c(O)c(C(=O)O)cc3ccccc23)c1O [oxantel (pamoate), reference compound]",PL^pro % inhibition at 10 µM,SARS-CoV-2 PL^pro; ReFRAME hits,11%
COc1ccc(-c2ccc(OCc3cc(C(=O)[N-]S(=O)(=O)c4ccccc4C)oc3C)cc2)nc1.[Na+] [BGC-20-1531],M^pro % inhibition at 10 µM,SARS-CoV-2 M^pro; ReFRAME hits,58%
same,pIC50,SARS-CoV-2 M^pro; [4],< 5.30
same,PL^pro % inhibition at 10 µM,SARS-CoV-2 PL^pro; ReFRAME hits,24%
same,pIC50,SARS-CoV-2 PL^pro; [5],< 5.30
"CCOC(=O)C[C@H](NC(=O)[C@H](C)NC(=O)[C@@H](NC(=O)OCc1ccccc1)C(C)C)C(=O)COC(=O)c1c(Cl)cccc1Cl [Compound 4, Ethyl (5S,8S,11S)-11-(2-((2,6-dichlorobenzoyl)oxy)acetyl)-5-isopropyl-8-methyl-3,6,9-trioxo-1-phenyl-2-oxa-4,7,10-triazatridecan-13-oate, reference compound]",pIC50,"SARS-CoV-2 M^pro; 30 nM is the biochemical limit of the assay, read-out: IC50 against M^pro",7.52
same,inhibition at 10 µM,SARS-CoV-2 M^pro; ReFRAME hits,95%
same,Concentration up to which non-cytotoxic,HUH7 cells,≤ 10 µM
same,inhibition at 10 µM,SARS-CoV-2 PL^pro; ReFRAME hits,19%
same,pIC50,SARS-CoV-2 PL^pro; read-out: PL^pro IC50,< 5.30
same,Antiviral effect,SARS-CoV-2,50%
same,Binding to M^pro in SPR (in words),M^pro,confirmed to bind
same,Binding to M^pro in SPR (in words),M^pro; in the presence of slow off-rate inhibitor N3,no binding observed
Cc1cccnc1NS(=O)(=O)c1ccc(C#Cc2ccc(O)c(C(=O)O)c2)cc1 [susalimod],inhibition at 10 µM,SARS-CoV-2 M^pro; ReFRAME hits,31%
same,pIC50,SARS-CoV-2 M^pro; read-out: M^pro IC50,< 5.30
same,inhibition at 10 µM,SARS-CoV-2 PL^pro; ReFRAME hits,22%
same,pIC50,SARS-CoV-2 PL^pro; read-out: PL^pro IC50,< 5.30
O=c1cc(-c2ccc(O)c(-c3c(O)cc(O)c4c(=O)cc(-c5ccc(O)cc5)oc34)c2)oc2cc(O)cc(O)c12 [amentoflavone],inhibition at 10 µM,SARS-CoV-2 M^pro; ReFRAME hits,34%
same,inhibition at 10 µM,SARS-CoV-2 PL^pro; ReFRAME hits,4%
same,pIC50,SARS-CoV-2 PL^pro; read-out: PL^pro IC50,< 5.30
CC(=O)Oc1ccccc1C(=O)OC1OC(=O)c2ccccc21 (stereo not drawn) [talosalate],M^pro % inhibition at 10 µM,SARS-CoV-2 M^pro; ReFRAME hits,80%
same,pIC50,SARS-CoV-2 M^pro; [4],5.40
same,PL^pro % inhibition at 10 µM,SARS-CoV-2 PL^pro; ReFRAME hits,13%
same,pIC50,SARS-CoV-2 PL^pro; [5],< 5.30
[Cl][Hg][Cl] [mercuric chloride],PL^pro % inhibition at 10 µM,SARS-CoV-2 PL^pro; ReFRAME hits,16%
same,pIC50,SARS-CoV-2 PL^pro; [5],< 5.30
"O=C(NC1CC1)C(=O)C(Cc1ccccc1)NC(=O)C1CCC(=O)N1Cc1ccccc1 (stereo not drawn) [Compound 2, ABT-957, reference compound]",pIC50,SARS-CoV-2 M^pro; [4],< 5.30
same,pIC50,SARS-CoV-2 M^pro; read-out: IC50 against M^pro,< 4.00
same,inhibition at 10 µM,SARS-CoV-2 M^pro; ReFRAME hits,73%
same,inhibition at 10 µM,SARS-CoV-2 PL^pro; ReFRAME hits,17%
same,pIC50,SARS-CoV-2 PL^pro; read-out: PL^pro IC50,< 5.30
COc1ccc(/C=C/CCCCOc2ccc(C(=O)c3cccc(C(=O)O)c3)cc2CCC(=O)O)cc1 [LY 223982],M^pro % inhibition at 10 µM,SARS-CoV-2 M^pro; ReFRAME hits,43%
same,pIC50,SARS-CoV-2 M^pro; [4],< 5.30
same,PL^pro % inhibition at 10 µM,SARS-CoV-2 PL^pro; ReFRAME hits,22%
same,pIC50,SARS-CoV-2 PL^pro; [5],< 5.30
Cc1ccc(N)cc1C(=O)N[C@H](C)c1cccc2ccccc12 [GRL-0617],Viral RNA detection potency,[1],> 50 µM
same,Cytopathic-effect potency,[2],30 µM
same,pIC50,[3],< 4.00
"CN1CCCN=C1/C=C/c1cccs1 [Pyrantel pamoate, reference compound]",pIC50,SARS-CoV-2 PL^pro,< 5.30
